The test system of this test is T1, M. spathulata R25L270 lipase.
T1 construct: native secreted enzyme; crude culture supernatant (Macauba cake medium), not purified here; free enzyme
Nature of the test: spectrophotometric release of p-nitrophenol at […] nm. The conditions noted are these: free enzyme, crude culture supernatant; pH 8.0, 37 °C; pNPP 0.1-1 mM; Triton X-100, gum arabic, 2-propanol in the substrate solution; read-out: Michaelis Constant KM. Format: biochemical, Moniliella spathulata.

The values below come from article PMC6151709, “Immobilization of Moniliella spathulata R25L270 Lipase on Ionic, Hydrophobic and Covalent Supports: Functional Properties and Hydrolysis of Sardine Oil” (Molecules : A Journal of Synthetic Chemistry and Natural …, 2017).

The structures appear in SMILES notation.

Consider `CCCCCCCCCCCCCCCC(=O)Oc1ccc([N+](=O)[O-])cc1` [p-nitrophenylpalmitate], for which the Km (as a rule, the concentration of substrate that gives half-maximal velocity) is 1920 µM.
